Data set [1] has as its target T1, DPP4 (dipeptidyl peptidase 4) (Homo sapiens, UniProt P27487). The experiment in a line: Half life of compound assessed as recombinant human DPP4-mediated cleavage by RP-HPLC analysis. In kind it is ADME.
A short description of data set [2]: Retention time of compound over 30 mins by HPLC analysis. In kind it is physicochemical. As to conditions: 0.5 h.
Data set [3] concerns the target T1, DPP4 (dipeptidyl peptidase 4). The experiment in a line: Drug degradation assessed as recombinant human DPP4-mediated cleavage by measuring compound remaining after 1 hr by RP-HPLC analysis. In kind it is ADME. Conditions: read-out: Stability.
The target is the same in data set [4]. Kind of data set: Drug degradation assessed as recombinant human DPP4-mediated cleavage by measuring compound remaining after 2 hrs by RP-HPLC analysis. In kind it is ADME. Conditions: read-out: Stability.
For data set [5] the target is unchanged. Kind of data set: Drug degradation assessed as recombinant human DPP4-mediated cleavage by measuring compound remaining after 4 hrs by RP-HPLC analysis. Conditions: read-out: Stability. In kind it is ADME.
Data set [6] shares this target. The experiment in a line: Drug degradation assessed as recombinant human DPP4-mediated cleavage by measuring compound remaining after 8 hrs by RP-HPLC analysis. In kind it is ADME. Conditions: read-out: Stability.
For data set [7] the target is unchanged. Kind of data set: Drug degradation assessed as recombinant human DPP4-mediated cleavage by measuring compound remaining after 12 hrs by RP-HPLC analysis. In kind it is ADME. Conditions: read-out: Stability.
Data set [8] shares this target. Kind of data set: Drug degradation assessed as recombinant human DPP4-mediated cleavage by measuring compound remaining after 24 hrs by RP-HPLC analysis. In kind it is ADME. As to conditions: read-out: Stability.
Data set [9] shares this target. Kind of data set: Drug degradation assessed as recombinant human DPP4-mediated cleavage by measuring compound remaining after 48 hrs by RP-HPLC analysis. Conditions: read-out: Stability. In kind it is ADME.
For data set [10] the target is unchanged. Kind of data set: Drug degradation assessed as recombinant human DPP4-mediated cleavage by measuring compound remaining after 72 hrs by RP-HPLC analysis. In kind it is ADME. As to conditions: read-out: Stability.
Data set [11] shares this target. The experiment in a line: Drug degradation assessed as recombinant human DPP4-mediated cleavage by measuring compound remaining after 96 hrs by RP-HPLC analysis. In kind it is ADME. As to conditions: read-out: Stability.

We go through 8 compounds from ChEMBL document CHEMBL3769397, “A new GLP-1 analogue with prolonged glucose-lowering activity in vivo via backbone-based modification at the N-terminus” (Bioorg Med Chem, 2016).

T1 sequence (P27487 whole entry): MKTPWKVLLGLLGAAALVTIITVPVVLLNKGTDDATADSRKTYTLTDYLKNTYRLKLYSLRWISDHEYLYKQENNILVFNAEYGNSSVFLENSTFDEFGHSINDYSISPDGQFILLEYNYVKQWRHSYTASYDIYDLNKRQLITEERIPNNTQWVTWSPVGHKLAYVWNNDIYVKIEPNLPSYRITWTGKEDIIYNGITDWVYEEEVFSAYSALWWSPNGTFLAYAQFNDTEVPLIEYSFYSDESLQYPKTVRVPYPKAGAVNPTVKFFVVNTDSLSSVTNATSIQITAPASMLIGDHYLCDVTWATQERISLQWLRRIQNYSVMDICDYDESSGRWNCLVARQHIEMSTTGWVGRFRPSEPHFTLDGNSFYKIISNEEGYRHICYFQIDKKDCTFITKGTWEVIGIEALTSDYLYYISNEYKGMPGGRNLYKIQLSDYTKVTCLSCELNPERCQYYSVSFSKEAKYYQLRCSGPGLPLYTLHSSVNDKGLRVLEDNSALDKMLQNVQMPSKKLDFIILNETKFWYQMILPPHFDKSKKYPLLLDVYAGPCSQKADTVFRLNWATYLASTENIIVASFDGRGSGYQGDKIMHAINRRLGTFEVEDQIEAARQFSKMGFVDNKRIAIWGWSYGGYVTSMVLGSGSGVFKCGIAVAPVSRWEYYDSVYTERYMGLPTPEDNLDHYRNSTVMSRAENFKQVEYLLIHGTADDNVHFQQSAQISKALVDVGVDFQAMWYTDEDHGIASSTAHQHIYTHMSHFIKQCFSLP

As to `CC[C@H](C)[C@H](NC(=O)[C@H](Cc1ccccc1)NC(=O)[C@H](CCC(=O)O)NC(=O)[C@H](CCCCN)NC(=O)[C@H](C)NC(=O)[C@H](C)NC(=O)[C@H](CCC(N)=O)NC(=O)CNC(=O)[C@H](CCC(=O)O)NC(=O)[C@H](CC(C)C)NC(=O)[C@H](Cc1ccc(O)cc1)NC(=O)[C@H](CO)NC(=O)[C@H](CO)NC(=O)[C@@H](NC(=O)[C@H](CC(=O)O)NC(=O)[C@H](CO)NC(=O)[C@@H](NC(=O)[C@H](Cc1ccccc1)NC(=O)[C@@H](NC(=O)CNC(=O)[C@H](CCC(=O)O)N(C)C(=O)[C@H](C)NC(=O)[C@@H](N)Cc1cnc[nH]1)[C@@H](C)O)[C@@H](C)O)C(C)C)C(=O)N[C@@H](C)C(=O)N[C@@H](Cc1c[nH]c2ccccc12)C(=O)N[C@@H](CC(C)C)C(=O)N[C@H](C(=O)N[C@@H](CCCCN)C(=O)NCC(=O)N[C@@H](CCCNC(=N)N)C(N)=O)C(C)C`, the half-life in data set [1] is above 96 h. Also, the Retention_time in data set [2] came out at 14.612 min. For the same compound, in data set [3], the remaining at 1 h amounted to 100%. The remaining at 2 h in [4] amounted to 100%. Also, the remaining at 4 h in [5] stood at 100%. The remaining at 8 h in data set [6] is 100%. In data set [7], the remaining at 12 h worked out at 100%.
On to `CC[C@H](C)[C@H](NC(=O)[C@H](Cc1ccccc1)NC(=O)[C@H](CCC(=O)O)NC(=O)[C@H](CCCCN)NC(=O)[C@H](C)NC(=O)[C@H](C)NC(=O)[C@H](CCC(N)=O)NC(=O)CNC(=O)[C@H](CCC(=O)O)NC(=O)[C@H](CC(C)C)NC(=O)[C@H](Cc1ccc(O)cc1)NC(=O)[C@H](CO)NC(=O)[C@H](CO)NC(=O)[C@@H](NC(=O)[C@H](CC(=O)O)NC(=O)[C@H](CO)NC(=O)[C@@H](NC(=O)[C@H](Cc1ccccc1)NC(=O)[C@@H](NC(=O)CNC(=O)[C@H](CCC(=O)O)NC(=O)[C@H](C)N(C)C(=O)[C@@H](N)Cc1cnc[nH]1)[C@@H](C)O)[C@@H](C)O)C(C)C)C(=O)N[C@@H](C)C(=O)N[C@@H](Cc1c[nH]c2ccccc12)C(=O)N[C@@H](CC(C)C)C(=O)N[C@H](C(=O)N[C@@H](CCCCN)C(=O)NCC(=O)N[C@@H](CCCNC(=N)N)C(N)=O)C(C)C`, for which the half-life in data set [1] is 0.83 h. Also, the Retention_time in [2] worked out at 14.702 min. Further, the remaining at 1 h in data set [3] came out at 42.7%. Also, the remaining at 2 h in data set [4] was determined as 17.6%. The remaining at 4 h in data set [5] turned out to be 4.3%. Further, the remaining at 8 h in data set [6] is 0%. Further, the remaining at 12 h in data set [7] turned out to be 0%.
Consider `CC[C@H](C)[C@H](NC(=O)[C@H](Cc1ccccc1)NC(=O)[C@H](CCC(=O)O)NC(=O)[C@H](CCCCN)NC(=O)[C@H](C)NC(=O)[C@H](C)NC(=O)[C@H](CCC(N)=O)NC(=O)CNC(=O)[C@H](CCC(=O)O)NC(=O)[C@H](CC(C)C)NC(=O)[C@H](Cc1ccc(O)cc1)NC(=O)[C@H](CO)NC(=O)[C@H](CO)NC(=O)[C@@H](NC(=O)[C@H](CC(=O)O)NC(=O)[C@H](CO)NC(=O)[C@@H](NC(=O)[C@H](Cc1ccccc1)N(C)C(=O)[C@@H](NC(=O)CNC(=O)[C@H](CCC(=O)O)NC(=O)[C@H](C)NC(=O)[C@@H](N)Cc1cnc[nH]1)[C@@H](C)O)[C@@H](C)O)C(C)C)C(=O)N[C@@H](C)C(=O)N[C@@H](Cc1c[nH]c2ccccc12)C(=O)N[C@@H](CC(C)C)C(=O)N[C@H](C(=O)N[C@@H](CCCCN)C(=O)NCC(=O)N[C@@H](CCCNC(=N)N)C(=O)O)C(C)C`, for which, in data set [1], the half-life was 3.46 h. The Retention_time in data set [2] is 14.127 min. For the same compound, the remaining at 1 h in [3] turned out to be 79.4%. Also, the remaining at 2 h in data set [4] stood at 66.3%. In addition, the remaining at 4 h in data set [5] turned out to be 42.7%. In addition, the remaining at 8 h in data set [6] was 17.6%. Moreover, in [7], the remaining at 12 h amounted to 6.1%.
Compound `CC[C@H](C)[C@H](NC(=O)[C@H](Cc1ccccc1)NC(=O)[C@H](CCC(=O)O)NC(=O)[C@H](CCCCN)NC(=O)[C@H](C)NC(=O)[C@H](C)NC(=O)[C@H](CCC(N)=O)NC(=O)CNC(=O)[C@H](CCC(=O)O)NC(=O)[C@H](CC(C)C)NC(=O)[C@H](Cc1ccc(O)cc1)NC(=O)[C@H](CO)NC(=O)[C@H](CO)NC(=O)[C@@H](NC(=O)[C@H](CC(=O)O)NC(=O)[C@H](CO)NC(=O)[C@@H](NC(=O)[C@H](Cc1ccccc1)NC(=O)[C@@H](NC(=O)CNC(=O)[C@H](CCC(=O)O)NC(=O)[C@H](C)NC(=O)[C@@H](N)Cc1c[nH]cn1)[C@@H](C)O)[C@@H](C)O)C(C)C)C(=O)N[C@@H](C)C(=O)N[C@@H](Cc1c[nH]c2ccccc12)C(=O)N[C@@H](CC(C)C)C(=O)N[C@H](C(=O)N[C@@H](CCCCN)C(=O)NCC(=O)N[C@@H](CCCNC(=N)N)C(N)=O)C(C)C` registered a Retention_time in data set [2] of 14.611 min.
On to `CC[C@H](C)[C@H](NC(=O)[C@H](Cc1ccccc1)NC(=O)[C@H](CCC(=O)O)NC(=O)[C@H](CCCCN)NC(=O)[C@H](C)NC(=O)[C@H](C)NC(=O)[C@H](CCC(N)=O)NC(=O)CNC(=O)[C@H](CCC(=O)O)NC(=O)[C@H](CC(C)C)NC(=O)[C@H](Cc1ccc(O)cc1)NC(=O)[C@H](CO)NC(=O)[C@H](CO)NC(=O)[C@@H](NC(=O)[C@H](CC(=O)O)NC(=O)[C@H](CO)NC(=O)[C@@H](NC(=O)[C@H](Cc1ccccc1)NC(=O)[C@H]([C@@H](C)O)N(C)C(=O)CNC(=O)[C@H](CCC(=O)O)NC(=O)[C@H](C)NC(=O)[C@@H](N)Cc1cnc[nH]1)[C@@H](C)O)C(C)C)C(=O)N[C@@H](C)C(=O)N[C@@H](Cc1c[nH]c2ccccc12)C(=O)N[C@@H](CC(C)C)C(=O)N[C@H](C(=O)N[C@@H](CCCCN)C(=O)NCC(=O)N[C@@H](CCCNC(=N)N)C(N)=O)C(C)C`, for which, in [1], the half-life was 2.7 h. The compound also came in with a Retention_time in data set [2] of 14.721 min. Besides, in [3], the remaining at 1 h was 69.8%. In addition, the remaining at 2 h in data set [4] was found to be 55.4%. Further, the remaining at 4 h in [5] was 33.2%. Besides, the remaining at 8 h in data set [6] came to 10.7%. Further, the remaining at 12 h in data set [7] came out at 0%.
Turning to `CC[C@H](C)[C@H](NC(=O)[C@H](Cc1ccccc1)NC(=O)[C@H](CCC(=O)O)NC(=O)[C@H](CCCCN)NC(=O)[C@H](C)NC(=O)[C@H](C)NC(=O)[C@H](CCC(N)=O)NC(=O)CNC(=O)[C@H](CCC(=O)O)NC(=O)[C@H](CC(C)C)NC(=O)[C@H](Cc1ccc(O)cc1)NC(=O)[C@H](CO)NC(=O)[C@H](CO)NC(=O)[C@@H](NC(=O)[C@H](CC(=O)O)NC(=O)[C@H](CO)NC(=O)[C@@H](NC(=O)[C@H](Cc1ccccc1)NC(=O)[C@@H](NC(=O)CNC(=O)[C@H](CCC(=O)O)NC(=O)[C@H](C)CNC(=O)[C@@H](N)Cc1cnc[nH]1)[C@@H](C)O)[C@@H](C)O)C(C)C)C(=O)N[C@@H](C)C(=O)N[C@@H](Cc1c[nH]c2ccccc12)C(=O)N[C@@H](CC(C)C)C(=O)N[C@H](C(=O)N[C@@H](CCCCN)C(=O)NCC(=O)N[C@@H](CCCNC(=N)N)C(N)=O)C(C)C`, the half-life in data set [1] is above 96 h. The Retention_time in data set [2] amounted to 14.005 min. The remaining at 12 h in data set [7] turned out to be 100%. Moreover, the remaining at 24 h in data set [8] was determined as 100%. In data set [9], the remaining at 48 h worked out at 100%. Also, in data set [10], the remaining at 72 h came to 100%. For the same compound, the remaining at 96 h in data set [11] was determined as 100%.
For the compound `CC[C@H](C)[C@H](NC(=O)[C@H](Cc1ccccc1)NC(=O)[C@H](CCC(=O)O)NC(=O)[C@H](CCCCN)NC(=O)[C@H](C)NC(=O)[C@H](C)NC(=O)[C@H](CCC(N)=O)NC(=O)CNC(=O)[C@H](CCC(=O)O)NC(=O)[C@H](CC(C)C)NC(=O)[C@H](Cc1ccc(O)cc1)NC(=O)[C@H](CO)NC(=O)[C@H](CO)NC(=O)[C@@H](NC(=O)[C@H](CC(=O)O)NC(=O)[C@H](CO)NC(=O)[C@@H](NC(=O)[C@H](Cc1ccccc1)NC(=O)[C@@H](NC(=O)CNC(=O)C[C@@H](CCC(=O)O)NC(=O)[C@H](C)NC(=O)[C@@H](N)Cc1cnc[nH]1)[C@@H](C)O)[C@@H](C)O)C(C)C)C(=O)N[C@@H](C)C(=O)N[C@@H](Cc1c[nH]c2ccccc12)C(=O)N[C@@H](CC(C)C)C(=O)N[C@H](C(=O)N[C@@H](CCCCN)C(=O)NCC(=O)N[C@@H](CCCNC(=N)N)C(N)=O)C(C)C`, the half-life in data set [1] was 96 h. In data set [2], this compound had a Retention_time of 14.669 min. The remaining at 12 h in data set [7] was 82.9%. The remaining at 24 h in data set [8] was found to be 72.7%. For the same compound, in data set [9], the remaining at 48 h is 61.3%. For the same compound, the remaining at 72 h in [10] stood at 54%. Moreover, in data set [11], the remaining at 96 h amounted to 41.7%.
`CC[C@H](C)[C@H](NC(=O)[C@H](Cc1ccccc1)NC(=O)[C@H](CCC(=O)O)NC(=O)[C@H](CCCCN)NC(=O)[C@H](C)NC(=O)[C@H](C)NC(=O)[C@H](CCC(N)=O)NC(=O)CNC(=O)[C@H](CCC(=O)O)NC(=O)[C@H](CC(C)C)NC(=O)[C@H](Cc1ccc(O)cc1)NC(=O)[C@H](CO)NC(=O)[C@H](CO)NC(=O)[C@@H](NC(=O)[C@H](CC(=O)O)NC(=O)[C@H](CO)NC(=O)[C@@H](NC(=O)[C@H](Cc1ccccc1)NC(=O)[C@@H](NC(=O)CN(C)C(=O)[C@H](CCC(=O)O)NC(=O)[C@H](C)NC(=O)[C@@H](N)Cc1cnc[nH]1)[C@@H](C)O)[C@@H](C)O)C(C)C)C(=O)N[C@@H](C)C(=O)N[C@@H](Cc1c[nH]c2ccccc12)C(=O)N[C@@H](CC(C)C)C(=O)N[C@H](C(=O)N[C@@H](CCCCN)C(=O)NCC(=O)N[C@@H](CCCNC(=N)N)C(N)=O)C(C)C`: the half-life in data set [1] is 2.42 h. This compound registered a Retention_time in data set [2] of 14.289 min. Further, in data set [3], the remaining at 1 h is 75.1%. In addition, in data set [4], the remaining at 2 h is 55.5%. Further, the remaining at 4 h in data set [5] is 32.6%. In addition, in [6], the remaining at 8 h is 15.1%. For the same compound, the remaining at 12 h in data set [7] is 7.5%.
